# Laboratory results taken from PMC10046020, “In Silico Screening and Optimization of Cell-Penetrating Peptides Using Deep Learning Methods” (Biomolecules, 2023).
# Peptide text beside a SMILES is read from it. * marks the point of attachment. FITC = O=C1OC2(c3ccc(O)cc3Oc3cc(O)ccc32)c2ccc(NC(=S)*)cc21; Ahx = NCCCCCC(=O)O
# Test system: not given
# Details: Spreadsheet S1: 150 CPP and 150 non-CPP peptides collected from CellPPD, MLCPP, CPPsite 2.0, Lifetein and other publications; cited from earlier work
# Excerpt: Supplement biomolecules-13-00522-s001.zip/biomolecules-2162660_Supplementary Spreadsheets S1 Test Set.csv, table | column: class || Supplement biomolecules-13-00522-s001.zip/biomolecules-2162660_Supplementary Spreadsheets S2 Train Set.csv, table | column: class
row,Compound,"class (CPP / Non-CPP), Test Set"
1,SRISNRLSSSATRT,Non-CPP
2,STGKANKITITNDKGRLSK,CPP
3,SWFASTGGRDSKIDVWSLVP,Non-CPP
4,TAAGDARANAVAKAGLHDLNIETDTERNH,Non-CPP
5,TAMRAVDKLLLHLKKLFREGQFNRNFESIIICRDRT,CPP
6,TAQVFFNVYKKAKPN,Non-CPP
7,TERQGKIWFQNRRMK,Non-CPP
8,TERQIKIWFQNRCMK,Non-CPP
9,TERQIKIWFQNRRMK,Non-CPP
10,TFFYGGSRGKRNNFKTEEY,CPP
11,TPTSPSSPGLSPVPPPDKVDGFSRRSLRRARPRR,Non-CPP
12,TRQARRNRRRWRERQR,CPP
13,TRSSRAGLQFPVGRVIIRLLRK,CPP
14,TRTSRGWHTTDLKYN,Non-CPP
15,TTPFTIRGPLGNQGRGNPVR,Non-CPP
16,VGALAVVVWLWLWLWAGSGPKKKRKVC,CPP
17,VKKKKIKREIKIAAQRYGRELRRMADEFHV,CPP

row,Compound,"class (CPP / Non-CPP), Test Set"
1,VKRFKKFFRKLKKLV,CPP
2,VTQADVGSALANLKIPGVGS,Non-CPP
3,WEAVVAYGRKKRRQRRR,CPP
4,WELVVAYGRKKRRQRRR,CPP
5,WELVVLGYGRKKRRQRRR,CPP
6,WRRRYRRWRRRRRWRRRPRR,CPP
7,YGDCLPHLKLCKENKDCCSKKCKRRGTNIEKRCR,CPP
8,YGFMELFDDVTAIFSIDHCQEEYYEQMANNVM,Non-CPP
9,YGRKKRRQRRRGC,CPP
10,YGRKKRRQRRRPPLRKKKKKH,CPP
11,YGRKKRRQRRRYGRKKRRQRRR,CPP
12,YGRKKRRQRRTALDWSWLQTE,CPP
13,YMVGLCDYHILYSGWGQMDWHPEPHFYAWMYR,Non-CPP
14,YSSQHLCGSNLVEALYMTCGRSGFYRPHD,Non-CPP
15,YTMQMLLEIHRKNW,Non-CPP
16,YTPNDITLNNSVALDPIDISIELNKAKSDLEESKE,Non-CPP

# Same assay, conditions: cited from earlier work
row,Compound,"class (CPP / Non-CPP), Test Set"
1,SNGHACRPW,Non-CPP
2,SYNTF,Non-CPP
3,TWLKYH,CPP
4,VATIKSVSFYTRK,Non-CPP
5,VDFEEAYLAVS,Non-CPP
6,VIVTERVLLLVAP,Non-CPP
7,VIVYIVVKDASSK,Non-CPP
8,VQQQQPLGQQQP,Non-CPP
9,VVLYKYRCYKVI,CPP
10,WRWKKKKA,CPP
11,WRWRWRWRW,CPP
12,YARVRRRGPRRR,CPP
13,YGRGGRRGRRR,CPP
14,YRDRFAFQPH,CPP
15,YTFGLKTSFNVQ,CPP

# Test system: MCF-7 cells
# Details: not given
Permeability [%],cell permeability compared to the WT peptide,Compound
10.40,–,CSCC[C@H](NC(=O)CCCCCNC(=S)Nc1ccc2c(c1)C(=O)OC21c2ccc(O)cc2Oc2cc(O)ccc21)C(=O)N[C@@H](CC(C)C)C(=O)N1CCC[C@H]1C(=O)NCC(=O)N[C@@H](CC(C)C)C(=O)N[C@@H](C)C(=O)N[C@@H](CC(C)C)C(=O)N[C@@H](CC(C)C)C(=O)N[C@@H](CC(C)C)C(=O)N[C@@H](CC(C)C)C(=O)N[C@@H](C)C(=O)N[C@@H](C)C(=O)N[C@@H](Cc1c[nH]c2ccccc12)C(=O)N[C@H](C(=O)N[C@@H](C)C(=O)N[C@@H](CCCNC(=N)N)C(=O)N[C@@H](C)C(N)=O)[C@@H](C)O [Peptide 1] ({FITC-Ahx}-MLPGLALLLLAAWTARA-NH2)
–,lower cell permeability than the WT CPP,CSCC[C@H](NC(=O)CCCCCNC(=S)Nc1ccc2c(c1)C(=O)OC21c2ccc(O)cc2Oc2cc(O)ccc21)C(=O)N[C@@H](CC(C)C)C(=O)N1CCC[C@H]1C(=O)NCC(=O)N[C@@H](CC(C)C)C(=O)N[C@@H](C)C(=O)N[C@@H](CC(C)C)C(=O)N[C@@H](CC(C)C)C(=O)N[C@@H](CCCCN)C(=O)N[C@@H](CC(C)C)C(=O)N[C@@H](C)C(=O)N[C@@H](C)C(=O)N[C@@H](Cc1c[nH]c2ccccc12)C(=O)N[C@H](C(=O)N[C@@H](C)C(=O)N[C@@H](CCCNC(=N)N)C(=O)N[C@@H](C)C(N)=O)[C@@H](C)O [Peptide 2] ({FITC-Ahx}-MLPGLALLKLAAWTARA-NH2)
59.07,–,CSCC[C@H](NC(=O)CCCCCNC(=S)Nc1ccc2c(c1)C(=O)OC21c2ccc(O)cc2Oc2cc(O)ccc21)C(=O)N[C@@H](CC(C)C)C(=O)N[C@@H](CCCCN)C(=O)N[C@@H](Cc1c[nH]cn1)C(=O)N[C@@H](CC(C)C)C(=O)N[C@@H](C)C(=O)N[C@@H](CC(C)C)C(=O)N[C@@H](CC(C)C)C(=O)N[C@@H](CC(C)C)C(=O)N[C@@H](CC(C)C)C(=O)N[C@@H](C)C(=O)N[C@@H](C)C(=O)N[C@@H](Cc1c[nH]c2ccccc12)C(=O)N[C@@H](CCCCN)C(=O)N[C@@H](C)C(=O)N[C@@H](CCCNC(=N)N)C(=O)N[C@@H](C)C(N)=O [Peptide 7] ({FITC-Ahx}-MLKHLALLLLAAWKARA-NH2)
–,lower cell permeability than the WT CPP,CSCC[C@H](NC(=O)CCCCCNC(=S)Nc1ccc2c(c1)C(=O)OC21c2ccc(O)cc2Oc2cc(O)ccc21)C(=O)N[C@@H](CCCCN)C(=O)N1CCC[C@H]1C(=O)NCC(=O)N[C@@H](CC(C)C)C(=O)N[C@@H](C)C(=O)N[C@@H](CC(C)C)C(=O)N[C@@H](CC(C)C)C(=O)N[C@@H](CC(C)C)C(=O)N[C@@H](CC(C)C)C(=O)N[C@@H](C)C(=O)N[C@@H](C)C(=O)N[C@@H](CCCCN)C(=O)N[C@@H](CCCCN)C(=O)N[C@@H](C)C(=O)N[C@@H](CCCNC(=N)N)C(=O)N[C@@H](C)C(N)=O [Peptide 10] ({FITC-Ahx}-MKPGLALLLLAAKKARA-NH2)
